Test results reported in publication PMC8187479, “Sugar phosphate activation of the stress sensor eIF2B” (Nature Communications, 2021).
Where “and” joins values, the source holds several entries; their conditions need not be identical. Equal entries are not always repeated.

B1: eIF2Bα (eukaryotic translation initiation factor 2B, α subunit), wild type, recombinant (natural protein, human)
chain: MDDKELIEYFKSQMKEDPDMASAVAAIRTLLEFLKRDKGETIQGLRANLTSAIETLCGVDSSVAVSSGGELFLRFISLASLEYSDYSKCKKIMIERGELFLRRISLSRNKIADLCHTFIKDGATILTHAYSRVVLRVLEAAVAAKKRFSVYVTESQPDLSGKKMAKALCHLNVPVTVVLDAAVGYIMEKADLVIVGAEGVVENGGIINKIGTNQMAVCAKAQNKPFYVVAESFKFVRLFPLNQQDVPDKFKYKADTLKVAQTGQDLKEEHPWVDYTAPSLITLLFTDLGVLTPSAVSDELIKLYL
notes: eIF2Bα, human, UniProt Q14232; called the small 34 kDa eIF2Bα subunit; C-terminal TEV-avi-FLAG tag; also called eIF2Bα2; α2

Experiments:
eIF2Bα [1] = target: T1, eIF2Bα (Homo sapiens, UniProt Q14232); test: MIDAS (mass spectrometry integrated with equilibrium dialysis) metabolite binding screen; conditions: MIDAS screen, sheet eIF2Ba; metabolites screened in pools 1-4; p-value and q-value given
T1 construct: made in house; host or cells: E. coli BL21(DE3)
T1 sequence (Q14232 1-305): B1 chain
In short: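 Hits called at Storey q < 0.1 on z-scores of PCA-corrected log2 fold change between protein and metabolite chambers, quantified by FIA-MS in triplicate.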

eIF2B = target: T2, eIF2B (Homo sapiens, UniProt P49770+Q14232+Q9UI10); test: eIF2B GEF activity assay, unbiased metabolite screen (Bodipy-FL-GDP release); assay type: biochemical; conditions: 10 μM metabolite
T2 construct: made in house; host or cells: eIF2Bα: E. coli BL21(DE3)
T2 sequence (P49770 whole entry, one chain of several): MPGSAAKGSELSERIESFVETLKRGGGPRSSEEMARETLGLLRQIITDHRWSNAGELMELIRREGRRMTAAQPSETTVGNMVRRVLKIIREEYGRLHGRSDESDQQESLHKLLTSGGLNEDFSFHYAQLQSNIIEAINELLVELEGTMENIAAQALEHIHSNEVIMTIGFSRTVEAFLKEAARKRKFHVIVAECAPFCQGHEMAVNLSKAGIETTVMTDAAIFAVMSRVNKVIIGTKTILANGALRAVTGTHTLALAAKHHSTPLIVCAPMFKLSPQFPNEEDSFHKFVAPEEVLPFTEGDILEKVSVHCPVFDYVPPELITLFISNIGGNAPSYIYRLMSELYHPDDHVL
T2 sequence (Q9UI10 whole entry, one chain of several): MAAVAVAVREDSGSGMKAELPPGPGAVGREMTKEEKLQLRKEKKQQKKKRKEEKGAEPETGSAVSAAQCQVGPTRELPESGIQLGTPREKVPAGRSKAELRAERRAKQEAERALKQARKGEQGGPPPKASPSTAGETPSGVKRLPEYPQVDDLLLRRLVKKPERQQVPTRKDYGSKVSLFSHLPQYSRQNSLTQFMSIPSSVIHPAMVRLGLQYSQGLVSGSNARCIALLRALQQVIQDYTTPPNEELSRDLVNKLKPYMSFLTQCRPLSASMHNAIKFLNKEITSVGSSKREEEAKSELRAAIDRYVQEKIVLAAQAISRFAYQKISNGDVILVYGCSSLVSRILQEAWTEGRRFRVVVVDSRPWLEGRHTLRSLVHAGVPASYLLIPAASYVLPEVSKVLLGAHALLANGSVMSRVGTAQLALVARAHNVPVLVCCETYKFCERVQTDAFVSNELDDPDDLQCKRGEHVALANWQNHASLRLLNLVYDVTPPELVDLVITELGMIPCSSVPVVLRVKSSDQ
T2 sequence (Q9NR50 whole entry partner, one chain of several): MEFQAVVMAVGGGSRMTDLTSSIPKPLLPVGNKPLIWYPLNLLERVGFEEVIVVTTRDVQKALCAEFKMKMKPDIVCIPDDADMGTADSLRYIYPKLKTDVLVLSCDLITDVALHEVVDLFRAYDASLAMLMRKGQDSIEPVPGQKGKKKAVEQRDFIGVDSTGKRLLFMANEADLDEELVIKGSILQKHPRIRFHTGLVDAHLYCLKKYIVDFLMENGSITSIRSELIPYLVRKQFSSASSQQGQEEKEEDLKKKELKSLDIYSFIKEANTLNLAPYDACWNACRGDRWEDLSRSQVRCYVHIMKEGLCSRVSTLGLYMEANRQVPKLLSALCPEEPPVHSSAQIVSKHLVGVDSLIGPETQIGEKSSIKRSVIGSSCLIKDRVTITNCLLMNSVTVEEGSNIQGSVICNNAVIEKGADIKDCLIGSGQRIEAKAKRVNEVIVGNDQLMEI
T2 sequence (Q13144 whole entry partner, one chain of several): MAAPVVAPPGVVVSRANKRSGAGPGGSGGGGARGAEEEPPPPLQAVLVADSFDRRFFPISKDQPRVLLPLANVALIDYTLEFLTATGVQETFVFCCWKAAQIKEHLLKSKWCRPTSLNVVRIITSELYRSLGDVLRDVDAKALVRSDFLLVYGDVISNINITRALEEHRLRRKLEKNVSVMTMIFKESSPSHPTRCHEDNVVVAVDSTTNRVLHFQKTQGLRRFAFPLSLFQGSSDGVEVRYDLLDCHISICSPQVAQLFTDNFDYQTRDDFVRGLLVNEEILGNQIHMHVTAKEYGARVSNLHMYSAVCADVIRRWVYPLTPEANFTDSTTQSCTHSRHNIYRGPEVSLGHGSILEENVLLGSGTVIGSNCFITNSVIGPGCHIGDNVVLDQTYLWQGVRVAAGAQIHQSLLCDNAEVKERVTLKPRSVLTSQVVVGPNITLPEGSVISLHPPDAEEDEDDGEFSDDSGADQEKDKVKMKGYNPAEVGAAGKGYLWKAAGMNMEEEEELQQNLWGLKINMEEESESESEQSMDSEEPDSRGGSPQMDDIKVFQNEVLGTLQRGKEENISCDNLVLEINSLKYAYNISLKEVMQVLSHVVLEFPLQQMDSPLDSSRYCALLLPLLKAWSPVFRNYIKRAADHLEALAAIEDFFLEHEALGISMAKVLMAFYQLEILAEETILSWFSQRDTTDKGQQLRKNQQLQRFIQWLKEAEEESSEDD
Protocol: Bodipy-FL-GDP-loaded eIF2 was used as a substrate for recombinant eIF2B. The assay was performed in 384-well plates. Reactions were read on a SpectraMax i3x plate reader (Molecular Devices) using the instrument’s Softmax Pro software with the following parameters: plate temperature = 25 °C; excitation wavelength = 485 nm (15 nm width); emission wavelength = 535 nm (25 nm width); read duration = 30 min at 45 s intervals. Data were analyzed in Prism. GDP release half-lives were calculated by fitting single-exponential decay curves.
For unbiased screening, MIDAS metabolite libraries at 10 mM stock concentration were dispensed into wells of the assay plate using an Echo Acoustic Liquid Handler (Labcyte). […] A single well was run for each metabolite. […] For targeted experiments with HEK293T lysates, the following conditions were used: 50 nM Bodipy-FL-GDP-loaded eIF2, 0.1 mM GDP, 1 mg/ml BSA, 0.1 or 0.3 mg/ml lysates.

eIF2Bα [2] = target: T1, eIF2Bα; test: Differential scanning fluorimetry (Protein Thermal Shift), eIF2Bα Tm; assay type: binding; conditions: individual replicates Rep 1-4, control without metabolite about 64.1
In short: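 Human eIF2Bα at 1.5 μM was heated with Thermal Shift dye and metabolites in dose response. Tm for each condition came from Boltzmann fits of the melt curves.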

[3] = test system: recombinant C. thermophilum eIF2Bα; design: method as in PMID 26384431; conditions: ITC; cited from earlier work
[4] = target: the molecule itself; test: SEC; purified eIF2Bα alone, 2.4 μM, Superose 6 Increase 10/300, 25 mM HEPES, 200 mM KCl, 2 mM MgCl2, 1 mM DTT, pH 7.5; no ligand (500 nM ISRIB had no effect)

| Molecule | log2(corrected fold change) (eIF2Bα [1]) | effect on eIF2B GEF activity in the screen (eIF2B) | Tm of eIF2Bα (eIF2Bα [2]; 0.33 mM metabolite) | Tm of eIF2Bα (eIF2Bα [2]; 1 mM metabolite) | Tm of eIF2Bα (eIF2Bα [2]; 3.3 mM metabolite) | Tm of eIF2Bα (eIF2Bα [2]; 10 mM metabolite) | binding to C. thermophilum eIF2Bα [3] | stoichiometry N [4] |
| --- | --- | --- | --- | --- | --- | --- | --- | --- |
| Nc1ncnc2c1ncn2[C@@H]1O[C@H](COP(=O)(O)O)[C@@H](O)[C@H]1O [AMP, Adenosine monophosphate] | 0.1066 | a hit in this functional assay screen | 65.271 °C and 65.2418 °C and 65.0115 °C and 64.5232 °C | 66.0123 °C and 65.9255 °C and 65.7398 °C and 64.0959 °C | 65.3392 °C and 65.2463 °C and 65.3342 °C and 64.7156 °C | 66.4657 °C and 66.4512 °C and 66.2897 °C and 64.6159 °C | binding |  |
| B1 |  |  |  |  |  |  |  | 2 |
